This note sets out measurements from ChEMBL document CHEMBL1135457 (J Med Chem, 2002).

Test [1] deals with T1, Estrogen receptor (Homo sapiens) (UniProt P03372).
T1 sequence (whole entry): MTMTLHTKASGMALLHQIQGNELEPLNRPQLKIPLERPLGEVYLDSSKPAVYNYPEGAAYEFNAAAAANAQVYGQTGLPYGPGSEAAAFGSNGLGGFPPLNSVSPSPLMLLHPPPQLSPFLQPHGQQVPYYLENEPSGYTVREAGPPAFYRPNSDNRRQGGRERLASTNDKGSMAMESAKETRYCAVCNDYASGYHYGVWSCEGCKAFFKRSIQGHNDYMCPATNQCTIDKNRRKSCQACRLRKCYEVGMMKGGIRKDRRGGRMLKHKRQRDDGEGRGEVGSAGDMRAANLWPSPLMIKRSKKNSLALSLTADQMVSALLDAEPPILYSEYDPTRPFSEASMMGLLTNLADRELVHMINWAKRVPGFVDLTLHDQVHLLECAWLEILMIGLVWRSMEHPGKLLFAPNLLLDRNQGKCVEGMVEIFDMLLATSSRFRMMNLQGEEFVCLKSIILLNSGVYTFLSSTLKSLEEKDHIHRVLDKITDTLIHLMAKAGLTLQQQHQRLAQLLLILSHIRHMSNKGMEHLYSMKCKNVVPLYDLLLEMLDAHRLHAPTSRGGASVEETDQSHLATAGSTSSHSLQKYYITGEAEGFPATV
Kind of test: Displacement of radioligand from human Estrogen receptor alpha, percent inhibition at 10 uM.

Test [2] deals with T2, Glucocorticoid receptor (Homo sapiens) (UniProt P04150).
T2 sequence (whole entry): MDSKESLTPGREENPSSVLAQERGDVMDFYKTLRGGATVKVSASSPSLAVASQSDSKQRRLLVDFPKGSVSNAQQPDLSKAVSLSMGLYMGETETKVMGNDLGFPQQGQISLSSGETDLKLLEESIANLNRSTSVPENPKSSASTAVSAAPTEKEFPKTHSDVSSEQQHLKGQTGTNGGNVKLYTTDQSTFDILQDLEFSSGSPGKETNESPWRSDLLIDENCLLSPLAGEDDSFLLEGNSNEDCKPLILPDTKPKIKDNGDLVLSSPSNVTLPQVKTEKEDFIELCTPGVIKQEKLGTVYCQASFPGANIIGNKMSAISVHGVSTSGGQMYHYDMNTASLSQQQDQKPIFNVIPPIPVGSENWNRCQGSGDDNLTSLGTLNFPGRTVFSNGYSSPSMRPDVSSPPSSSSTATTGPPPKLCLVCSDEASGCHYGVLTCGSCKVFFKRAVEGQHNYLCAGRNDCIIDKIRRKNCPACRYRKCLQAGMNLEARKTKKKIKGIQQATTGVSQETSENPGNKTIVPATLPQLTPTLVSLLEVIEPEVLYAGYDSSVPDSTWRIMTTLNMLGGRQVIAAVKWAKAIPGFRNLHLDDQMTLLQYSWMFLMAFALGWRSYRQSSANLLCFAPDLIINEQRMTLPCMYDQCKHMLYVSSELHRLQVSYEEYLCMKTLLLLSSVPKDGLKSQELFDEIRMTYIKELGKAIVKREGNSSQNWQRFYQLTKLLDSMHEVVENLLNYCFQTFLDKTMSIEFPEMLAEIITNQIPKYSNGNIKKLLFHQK
Description: Antagonist activity as displacement of 10 nM [3H]dexamethasone from human Glucocorticoid receptor

Test [3] has as its target T3, Mineralocorticoid receptor (Homo sapiens) (UniProt P08235).
T3 sequence (whole entry): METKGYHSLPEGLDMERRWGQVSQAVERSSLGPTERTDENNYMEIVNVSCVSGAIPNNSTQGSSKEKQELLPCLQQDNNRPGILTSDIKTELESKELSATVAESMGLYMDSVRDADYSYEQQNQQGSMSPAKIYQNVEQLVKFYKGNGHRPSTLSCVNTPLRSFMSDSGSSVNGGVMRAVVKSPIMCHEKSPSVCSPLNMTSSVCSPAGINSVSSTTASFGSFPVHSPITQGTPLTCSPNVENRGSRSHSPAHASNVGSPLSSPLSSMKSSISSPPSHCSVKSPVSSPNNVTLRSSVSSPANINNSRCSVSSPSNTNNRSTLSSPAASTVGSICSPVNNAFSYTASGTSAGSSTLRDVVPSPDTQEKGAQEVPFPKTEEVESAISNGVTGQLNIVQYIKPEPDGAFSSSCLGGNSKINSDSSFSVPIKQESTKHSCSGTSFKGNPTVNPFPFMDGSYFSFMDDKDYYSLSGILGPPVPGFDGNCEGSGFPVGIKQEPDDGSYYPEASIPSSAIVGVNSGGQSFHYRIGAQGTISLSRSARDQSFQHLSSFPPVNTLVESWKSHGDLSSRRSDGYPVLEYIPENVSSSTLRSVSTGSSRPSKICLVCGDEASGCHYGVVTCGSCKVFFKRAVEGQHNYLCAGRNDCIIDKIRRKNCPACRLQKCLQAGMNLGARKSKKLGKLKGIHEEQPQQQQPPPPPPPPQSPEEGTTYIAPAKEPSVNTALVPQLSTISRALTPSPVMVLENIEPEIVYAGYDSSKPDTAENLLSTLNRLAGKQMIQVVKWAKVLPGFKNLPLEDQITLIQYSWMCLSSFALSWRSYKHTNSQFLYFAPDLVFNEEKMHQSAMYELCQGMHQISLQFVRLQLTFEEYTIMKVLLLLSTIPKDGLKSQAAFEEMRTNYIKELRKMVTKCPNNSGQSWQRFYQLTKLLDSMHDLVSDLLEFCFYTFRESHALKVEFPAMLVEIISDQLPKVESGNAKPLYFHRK
Description: Antagonist activity against human mineralocorticoid receptor as displacement of radioligand

As usually defined, the inhibition is the drop in the measured response relative to a control, in per cent.

As for `O=C1CC[C@@]2(Cc3ccccc3)c3ccc(O)cc3CC[C@@H]2C1`, the inhibition in test [1] is 45%.

For the compound `CC#C[C@]1(O)CCC2C3CCC4=CC(=O)CC[C@]4(Cc4ccc(C)cc4)C3=CC[C@@]21C` (stereo partly drawn), the Kif is 12 nM in test [2] and over 1000 nM in test [3]. The inhibition in test [1] amounted to 20%.

As to `Oc1ccc2c(c1)CC[C@@H]1C[C@@](O)(C#CCl)CC[C@@]21Cc1ccccc1`, the Kif is 4.1 nM in test [2] and over 1000 nM in test [3]. For the same compound, the inhibition in test [1] came out at 62%.

In test [1], `CC#C[C@@]1(O)CC[C@@]2(Cc3ccccc3)c3ccc(O)cc3CC[C@@H]2C1` returned an inhibition of 50%.
